Experimental data: ChEMBL document CHEMBL4043231, “Discovery of highly potent, selective, covalent inhibitors of JAK3” (Bioorg Med Chem Lett, 2017)
pEC50, pIC50: −log10 of the molar value. Active and inactive are the calls of the source. The rule behind the calls is not given here.

Key:
[1] = target: Non-receptor tyrosine-protein kinase TYK2 (Homo sapiens, UniProt P29597); experiment: Inhibition of His-tagged TYK2 (unknown origin) using fluoresceinated peptide as substrate after 3 hrs by caliper assay
Chain of Non-receptor tyrosine-protein kinase TYK2 (P29597 whole entry): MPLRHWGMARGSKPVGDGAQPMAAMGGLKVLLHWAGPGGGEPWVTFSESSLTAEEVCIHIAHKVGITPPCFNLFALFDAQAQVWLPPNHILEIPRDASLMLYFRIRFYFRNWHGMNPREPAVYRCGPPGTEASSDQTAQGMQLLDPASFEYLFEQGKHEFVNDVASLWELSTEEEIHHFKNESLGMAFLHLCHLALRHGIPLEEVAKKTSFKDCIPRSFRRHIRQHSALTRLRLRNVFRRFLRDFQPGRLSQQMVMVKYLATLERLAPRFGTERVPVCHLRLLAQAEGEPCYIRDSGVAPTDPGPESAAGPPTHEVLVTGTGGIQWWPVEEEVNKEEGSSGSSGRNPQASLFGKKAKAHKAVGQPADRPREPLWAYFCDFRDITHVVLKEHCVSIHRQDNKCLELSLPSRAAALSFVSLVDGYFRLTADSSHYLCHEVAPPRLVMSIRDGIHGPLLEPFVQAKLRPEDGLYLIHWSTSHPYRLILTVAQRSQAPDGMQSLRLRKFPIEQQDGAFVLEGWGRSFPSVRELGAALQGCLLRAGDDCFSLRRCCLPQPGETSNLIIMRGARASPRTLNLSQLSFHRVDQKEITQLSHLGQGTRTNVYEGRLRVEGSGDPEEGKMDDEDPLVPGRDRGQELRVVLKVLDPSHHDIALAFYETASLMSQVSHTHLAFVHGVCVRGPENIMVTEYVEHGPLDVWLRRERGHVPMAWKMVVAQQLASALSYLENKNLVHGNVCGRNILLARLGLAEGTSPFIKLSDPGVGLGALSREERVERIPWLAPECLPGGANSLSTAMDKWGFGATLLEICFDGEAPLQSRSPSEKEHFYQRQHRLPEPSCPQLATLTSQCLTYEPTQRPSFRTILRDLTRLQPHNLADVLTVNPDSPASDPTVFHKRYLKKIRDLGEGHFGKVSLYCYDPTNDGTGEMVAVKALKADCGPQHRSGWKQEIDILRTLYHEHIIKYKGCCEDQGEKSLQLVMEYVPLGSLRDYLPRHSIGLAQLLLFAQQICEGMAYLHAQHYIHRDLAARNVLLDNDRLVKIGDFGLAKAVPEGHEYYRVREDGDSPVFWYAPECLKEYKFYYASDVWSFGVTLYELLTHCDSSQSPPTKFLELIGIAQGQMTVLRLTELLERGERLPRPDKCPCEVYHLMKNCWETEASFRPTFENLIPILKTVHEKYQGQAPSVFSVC

[2] = target: T1, Tyrosine-protein kinase JAK2 (Homo sapiens, UniProt O60674); experiment: Inhibition of GST-tagged JAK2 (unknown origin) using fluoresceinated peptide as substrate after 3 hrs by caliper assay
T1 sequence (O60674 whole entry): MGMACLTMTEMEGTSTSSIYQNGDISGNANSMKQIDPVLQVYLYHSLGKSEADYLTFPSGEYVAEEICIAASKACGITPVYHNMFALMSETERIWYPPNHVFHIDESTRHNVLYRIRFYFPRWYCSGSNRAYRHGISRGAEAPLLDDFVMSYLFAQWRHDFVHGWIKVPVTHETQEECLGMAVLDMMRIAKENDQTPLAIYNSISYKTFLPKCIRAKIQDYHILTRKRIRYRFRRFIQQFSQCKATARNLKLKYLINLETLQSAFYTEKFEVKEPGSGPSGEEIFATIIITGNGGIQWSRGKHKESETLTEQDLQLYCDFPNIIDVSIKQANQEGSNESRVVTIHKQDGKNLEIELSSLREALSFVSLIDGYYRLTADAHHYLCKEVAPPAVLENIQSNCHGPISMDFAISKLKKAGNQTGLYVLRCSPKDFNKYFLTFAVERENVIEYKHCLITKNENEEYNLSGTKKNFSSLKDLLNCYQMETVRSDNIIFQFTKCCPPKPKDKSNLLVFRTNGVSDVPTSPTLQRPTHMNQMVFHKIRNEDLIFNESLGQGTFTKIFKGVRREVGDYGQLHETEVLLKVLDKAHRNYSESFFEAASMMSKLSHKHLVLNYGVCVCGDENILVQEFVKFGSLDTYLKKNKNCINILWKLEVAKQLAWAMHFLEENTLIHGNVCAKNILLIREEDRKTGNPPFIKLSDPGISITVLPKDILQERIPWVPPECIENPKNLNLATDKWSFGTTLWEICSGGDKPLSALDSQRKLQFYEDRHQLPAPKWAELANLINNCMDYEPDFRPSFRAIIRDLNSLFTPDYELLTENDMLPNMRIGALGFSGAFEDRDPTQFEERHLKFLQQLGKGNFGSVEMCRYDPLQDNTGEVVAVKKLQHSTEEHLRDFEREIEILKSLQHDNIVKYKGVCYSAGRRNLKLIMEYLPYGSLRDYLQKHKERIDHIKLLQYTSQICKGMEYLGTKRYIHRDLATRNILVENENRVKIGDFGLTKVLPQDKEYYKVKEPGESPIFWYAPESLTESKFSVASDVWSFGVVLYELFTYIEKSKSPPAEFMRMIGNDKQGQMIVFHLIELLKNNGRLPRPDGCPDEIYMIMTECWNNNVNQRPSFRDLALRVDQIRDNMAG

[3] = target: T2, Tyrosine-protein kinase JAK3 (Homo sapiens, UniProt P52333); experiment: Inhibition of JAK3 (unknown origin) using CSKtide as substrate after 30 mins in presence of [gamma32P]ATP by top-count liquid scintillation counting method
T2 sequence (P52333 whole entry): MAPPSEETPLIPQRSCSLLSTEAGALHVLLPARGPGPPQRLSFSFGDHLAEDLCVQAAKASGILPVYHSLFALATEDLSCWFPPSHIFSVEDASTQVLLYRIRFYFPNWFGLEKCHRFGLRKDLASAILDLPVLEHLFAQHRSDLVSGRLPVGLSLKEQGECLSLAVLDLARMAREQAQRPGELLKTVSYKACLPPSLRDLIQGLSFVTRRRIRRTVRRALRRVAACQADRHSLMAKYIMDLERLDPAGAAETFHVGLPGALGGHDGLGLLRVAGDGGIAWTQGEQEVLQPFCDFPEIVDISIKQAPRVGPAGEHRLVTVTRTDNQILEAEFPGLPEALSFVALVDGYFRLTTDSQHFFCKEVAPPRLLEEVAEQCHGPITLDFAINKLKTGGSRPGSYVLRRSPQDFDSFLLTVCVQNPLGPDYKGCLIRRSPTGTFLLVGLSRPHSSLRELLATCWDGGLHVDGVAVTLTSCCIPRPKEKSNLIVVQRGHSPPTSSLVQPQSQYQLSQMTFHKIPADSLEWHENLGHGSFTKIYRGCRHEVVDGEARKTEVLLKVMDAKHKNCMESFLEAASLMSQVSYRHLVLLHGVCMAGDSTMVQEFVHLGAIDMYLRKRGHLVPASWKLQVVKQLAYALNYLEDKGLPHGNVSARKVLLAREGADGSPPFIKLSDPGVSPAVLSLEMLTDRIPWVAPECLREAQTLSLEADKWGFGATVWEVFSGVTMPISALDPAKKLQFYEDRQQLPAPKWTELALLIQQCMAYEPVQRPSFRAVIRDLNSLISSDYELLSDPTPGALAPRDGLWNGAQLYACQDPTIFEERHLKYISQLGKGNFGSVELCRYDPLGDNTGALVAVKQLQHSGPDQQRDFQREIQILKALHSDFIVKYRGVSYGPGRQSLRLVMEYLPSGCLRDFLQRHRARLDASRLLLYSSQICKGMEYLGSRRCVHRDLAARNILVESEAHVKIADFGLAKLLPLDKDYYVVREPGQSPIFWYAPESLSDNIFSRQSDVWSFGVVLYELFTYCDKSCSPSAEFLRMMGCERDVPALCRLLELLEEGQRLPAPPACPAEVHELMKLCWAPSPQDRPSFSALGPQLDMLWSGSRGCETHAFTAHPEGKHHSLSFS

T-cell = experiment: Inhibition of IL-2 induced cell proliferation in human PBMC derived T cells pretreated for 60 mins followed by IL-2 addition measured after 3 days by [3H]thymidine incorporation assay; assay type: functional, cell-based
[4] = target: Tyrosine-protein kinase JAK1 (Homo sapiens, UniProt P23458); experiment: Inhibition of GST-tagged JAK1 (unknown origin) using fluoresceinated peptide as substrate after 3 hrs by caliper assay
Chain of Tyrosine-protein kinase JAK1 (P23458 whole entry): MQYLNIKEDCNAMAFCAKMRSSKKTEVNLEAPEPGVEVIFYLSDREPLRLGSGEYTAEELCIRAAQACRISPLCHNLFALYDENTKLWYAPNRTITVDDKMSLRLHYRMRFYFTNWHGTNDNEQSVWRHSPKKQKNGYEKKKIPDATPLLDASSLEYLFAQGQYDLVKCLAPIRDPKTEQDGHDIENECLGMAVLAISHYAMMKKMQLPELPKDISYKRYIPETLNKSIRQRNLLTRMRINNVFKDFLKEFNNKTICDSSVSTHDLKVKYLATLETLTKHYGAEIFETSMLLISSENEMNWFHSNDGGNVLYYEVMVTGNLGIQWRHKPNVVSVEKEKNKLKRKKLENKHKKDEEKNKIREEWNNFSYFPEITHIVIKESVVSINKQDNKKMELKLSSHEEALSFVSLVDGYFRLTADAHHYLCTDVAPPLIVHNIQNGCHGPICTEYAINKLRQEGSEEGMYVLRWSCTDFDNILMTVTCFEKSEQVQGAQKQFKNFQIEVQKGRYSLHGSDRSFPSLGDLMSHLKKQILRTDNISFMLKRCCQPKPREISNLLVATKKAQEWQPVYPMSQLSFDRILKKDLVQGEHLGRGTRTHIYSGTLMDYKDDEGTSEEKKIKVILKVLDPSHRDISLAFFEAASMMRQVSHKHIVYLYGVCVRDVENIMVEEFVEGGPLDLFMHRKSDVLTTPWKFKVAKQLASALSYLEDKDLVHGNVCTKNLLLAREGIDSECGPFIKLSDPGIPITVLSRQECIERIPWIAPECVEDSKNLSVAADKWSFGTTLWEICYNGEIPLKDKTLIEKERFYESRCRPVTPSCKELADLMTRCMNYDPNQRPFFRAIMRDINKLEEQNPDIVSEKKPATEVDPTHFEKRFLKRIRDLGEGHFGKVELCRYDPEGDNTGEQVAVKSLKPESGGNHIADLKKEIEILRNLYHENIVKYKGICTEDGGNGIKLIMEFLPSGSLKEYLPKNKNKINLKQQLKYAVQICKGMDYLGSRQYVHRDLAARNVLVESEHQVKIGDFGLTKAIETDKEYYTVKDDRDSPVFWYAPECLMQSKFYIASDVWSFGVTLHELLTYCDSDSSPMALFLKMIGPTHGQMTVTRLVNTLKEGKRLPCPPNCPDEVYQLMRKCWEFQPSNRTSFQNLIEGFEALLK

[5] = target: T3, Tyrosine-protein kinase JAK3 (Homo sapiens) (UniProt P52333); experiment: Inhibition of JAK3 (unknown origin) using CSKtide as substrate pretreated measured after 30 mins in presence of [gamma32P]ATP by top-count liquid scintillation counting method
T3 sequence (whole entry): T2 sequence (P52333 whole entry)

Blood = experiment: Inhibition of IL2-induced IFNgamma production in human whole blood; assay type: functional
[6] = target: T4, Tyrosine-protein kinase BTK (Homo sapiens, UniProt Q06187); experiment: Time-dependent inhibition of full length human His-tagged BTK expressed in baculovirus expression system using GEEPLYWSFPAKKK-NH2 as substrate by topcount scintillation counting analysis
T4 sequence (Q06187 whole entry): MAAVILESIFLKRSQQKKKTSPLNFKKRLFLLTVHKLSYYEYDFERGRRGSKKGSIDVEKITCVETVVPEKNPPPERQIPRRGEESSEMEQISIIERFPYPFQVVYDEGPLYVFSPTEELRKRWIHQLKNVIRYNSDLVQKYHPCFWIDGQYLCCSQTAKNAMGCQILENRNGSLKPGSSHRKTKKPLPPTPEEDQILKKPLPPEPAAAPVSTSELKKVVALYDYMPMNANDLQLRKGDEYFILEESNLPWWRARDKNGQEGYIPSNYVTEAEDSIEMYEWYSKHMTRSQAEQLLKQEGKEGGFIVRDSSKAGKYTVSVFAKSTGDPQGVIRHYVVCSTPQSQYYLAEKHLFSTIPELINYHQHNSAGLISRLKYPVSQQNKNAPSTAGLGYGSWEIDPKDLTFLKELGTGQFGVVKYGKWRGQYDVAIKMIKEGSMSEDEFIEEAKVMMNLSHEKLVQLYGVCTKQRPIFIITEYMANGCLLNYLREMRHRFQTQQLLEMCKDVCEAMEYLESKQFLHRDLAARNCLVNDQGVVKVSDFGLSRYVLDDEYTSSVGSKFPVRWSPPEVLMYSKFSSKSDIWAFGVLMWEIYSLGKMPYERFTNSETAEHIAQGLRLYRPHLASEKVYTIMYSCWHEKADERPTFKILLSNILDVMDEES

[7] = target: T4, Tyrosine-protein kinase BTK; experiment: Inhibition of full length human His-tagged BTK expressed in baculovirus expression system using GEEPLYWSFPAKKK-NH2 as substrate pretreated for 45 mins followed by ATP addition measured after 10 mins by topcount scintillation counting analysis
JAK3/JAK1 = JAK3/JAK1 (Homo sapiens, UniProt P23458+P52333); experiment: Inhibition of JAK1/JAK3 in human PBMC derived T cell assessed as reduction in IL2-induced STAT3 phosphorylation after 30 mins by ELISA; assay type: protein-complex assay
Chain of JAK3/JAK1 (P23458 whole entry, one chain of several): as the sequence (P23458 whole entry) above

[8] = target: T3, Tyrosine-protein kinase JAK3 (Homo sapiens)
Description: Time-dependent inhibition of JAK3 (unknown origin) using CSKtide as substrate in presence of [gamma32P]ATP by top-count liquid scintillation counting method

[9] = Bioavailability in mouse; assay type: ADME, organism-based; conditions: in vivo
JAK1/TYK2 = JAK1/TYK2 (Homo sapiens, UniProt P23458+P29597); experiment: Inhibition of JAK1/TYK2 in human PBMC derived T cell assessed as reduction in IFNa2a-induced STAT3 phosphorylation after 30 mins by ELISA; assay type: protein-complex assay
Chain of JAK1/TYK2 (P23458 whole entry): as above
Chain of JAK1/TYK2 (P29597 whole entry): as the sequence (P29597 whole entry) above

[10] = target: T4, Tyrosine-protein kinase BTK; experiment: Inhibition of full length human His-tagged BTK expressed in baculovirus expression system using GEEPLYWSFPAKKK-NH2 as substrate pretreated for 120 mins followed by ATP addition measured after 10 mins by topcount scintillation counting analysis
[11] = target: Macrophage colony-stimulating factor 1 receptor (Homo sapiens, UniProt P07333); experiment: Inhibition of FMS (unknown origin) by caliper assay
[12] = target: Epidermal growth factor receptor (Homo sapiens, UniProt P00533); experiment: Inhibition of EGFR (unknown origin) by caliper assay
[13] = target: T1, Tyrosine-protein kinase JAK2; experiment: Inhibition of JAK2 in human TF1 cells assessed as reduction in EPO-induced STAT5A phosphorylation pretreated for 30 mins followed by EPO addition measured after 10 mins by ELISA; assay type: cell-based
[14] = target: T4, Tyrosine-protein kinase BTK; experiment: Inhibition of BTK in goat anti-human IgM F(ab')2-stimulated human whole blood assessed as suppression of BCR-induced CD69 expression on B cells after 18 hrs by FACS analysis
[15] = target: T4, Tyrosine-protein kinase BTK; experiment: Inhibition of full length human His-tagged BTK expressed in baculovirus expression system using GEEPLYWSFPAKKK-NH2 as substrate measured immediately in presence of ATP by topcount scintillation counting analysis
[16] = target: T4, Tyrosine-protein kinase BTK; experiment: Inhibition of full length human His-tagged BTK expressed in baculovirus expression system using GEEPLYWSFPAKKK-NH2 as substrate pretreated for 15 mins followed by ATP addition measured after 10 mins by topcount scintillation counting analysis
[17] = target: T4, Tyrosine-protein kinase BTK; experiment: Inhibition of full length human His-tagged BTK expressed in baculovirus expression system using GEEPLYWSFPAKKK-NH2 as substrate measured after 10 mins in presence of ATP by topcount scintillation counting analysis

Row | Compound | pIC50 [1] | pIC50 [2] | pIC50 [3] | pIC50 [4] | pIC50 (T-cell) | also measured
1 | NC(=O)c1cnn2cccc2c1NCc1cccc(NC(=O)Cn2sc3ccccc3c2=O)c1 | 6.62 | 6.13 | 7.52 | 6.71 | 5.26 | 
2 | C=CC(=O)Nc1cccc(CNc2c(C(N)=O)cnn3cccc23)c1 | < 5.70 | < 5.70 | 8.89 | 5.77 | 7.26 | pIC50 (Blood): 5.64
3 | C=CC(=O)Nc1cccc(CNc2cc(Nc3ccccc3)ncc2C(N)=O)c1 | < 5.30 | 5.89 | > 9.00 | 5.96 | 7.66 | TDI [6]: Active; pEC50 [7]: 5.54; pIC50 (JAK3/JAK1): 7.29; TDI [8]: Active; bioavailability [9]: < 30%; pIC50 (JAK1/TYK2): 5.31; pEC50 [10]: 5.80; pIC50 [11]: 6.74; pIC50 [12]: < 5.00; pIC50 (Blood): 6.31; pIC50 [13]: 4.96; pIC50 [14]: < 5.00; pEC50 [15]: 4.70; pEC50 [16]: 5.18; pIC50 [17]: < 5.60
4 | NC(=O)c1cnn2cccc2c1NCc1cccc(NC(=O)COc2c(F)c(F)c(F)c(F)c2F)c1 | < 5.70 | < 5.70 | 6.13 | < 5.70 | 4.81 | 
5 | C=CS(=O)(=O)Nc1cccc(CNc2c(C(N)=O)cnn3cccc23)c1 | < 5.70 | 5.90 | 8.46 | 6.01 | 5.17 | 

The next lines start with results.

Row | pIC50 [1] | pIC50 [2] | pIC50 [3] | pIC50 [4] | Compound | pIC50 (T-cell) | also measured
6 |  |  | 7.00 |  | CCC(=O)Nc1cccc(CNc2cc(Nc3ccccc3)ncc2C(N)=O)c1 |  | inhibition [5]: Active
7 | < 5.70 | < 5.70 | 6.76 | 5.85 | C/C=C/C(=O)Nc1cccc(CNc2c(C(N)=O)cnn3cccc23)c1 | 4.58 | 
8 | < 5.70 | < 5.70 | 6.03 | < 5.70 | CN(C)/C=C(/C#N)C(=O)Nc1cccc(CNc2c(C(N)=O)cnn3cccc23)c1 | 4.84 | 
9 | 5.70 | 6.18 | 7.46 | 6.58 | N#CCC(=O)Nc1cccc(CNc2c(C(N)=O)cnn3cccc23)c1 | 5.07 | 
10 | 6.11 | 6.69 |  | 6.66 | NC(=O)c1cnc(Nc2ccccc2)cc1NCc1ccccc1 |  | 
11 | 6.93 | 6.36 | 7.85 | 6.67 | NC(=O)c1cnn2cc(-c3ccccc3)cc2c1NCc1ccccc1 |  | 
